Test results from PMC8880268, “Magnolol and Luteolin Inhibition of α-Glucosidase Activity: Kinetics and Type of Interaction Detected by In Vitro and In Silico Studies” (Pharmaceuticals, 2022).
Values joined by “and” are separate entries in the source; they are usually repeats but may differ in a detail not shown here. Equal values may be shown once. “Also recorded” adds a separate entry of the source. Read-outs that look alike come from different tables or passages of the source.

What was measured:
α-glucosidase [1] = target: T1, α-glucosidase (Saccharomyces cerevisiae, UniProt P38158); experiment: Yeast α-glucosidase inhibitory assay (pNPG substrate, absorbance 405 nm); format: biochemical; conditions: for IC50: 2 mM pNPG
T1 construct: purchased Merck KGaA, Darmstadt, Germany
T1 sequence (P38158 whole entry): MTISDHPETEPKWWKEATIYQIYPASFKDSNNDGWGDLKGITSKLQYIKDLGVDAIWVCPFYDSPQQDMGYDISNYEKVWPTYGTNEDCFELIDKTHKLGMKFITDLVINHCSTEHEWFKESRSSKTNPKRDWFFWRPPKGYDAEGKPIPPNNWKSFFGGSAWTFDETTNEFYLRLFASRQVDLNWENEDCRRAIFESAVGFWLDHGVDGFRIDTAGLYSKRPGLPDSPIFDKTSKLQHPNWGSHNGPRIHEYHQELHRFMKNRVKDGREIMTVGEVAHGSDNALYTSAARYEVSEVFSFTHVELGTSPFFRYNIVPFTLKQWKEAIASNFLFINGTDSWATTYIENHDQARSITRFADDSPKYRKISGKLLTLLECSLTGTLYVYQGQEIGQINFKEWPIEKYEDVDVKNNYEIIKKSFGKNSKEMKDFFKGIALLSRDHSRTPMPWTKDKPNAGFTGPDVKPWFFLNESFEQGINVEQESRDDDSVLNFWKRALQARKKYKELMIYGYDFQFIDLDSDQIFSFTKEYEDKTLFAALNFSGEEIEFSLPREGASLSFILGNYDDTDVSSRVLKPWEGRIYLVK
Description: α-Glucosidase inhibitory activity was determined according to a previous method. Briefly, 0.1 mM PBS (pH 6.8) was used to dissolve α-glucosidase and pNPG. In detail, 80 μL of PBS or 80 μL of test sample were added to 96-well plates. Successively, 20 μL of enzyme (0.025–0.125 µM) were added to each well. Magnolol (10–100 μM) and luteolin (5–50 μM) were prepared in DMSO (<1% v/v). […] Each sample was incubated with α-glucosidase for 10 min at 37 °C. The reaction started by adding 200 μL of pNPG (2 mM). The absorbance values were detected at 405 nm for 60 min, using a PerkinElmer Victor Nivo microplate spectrophotometer (Waltham, MA, USA). The α-glucosidase activity in the absence of inhibitors was defined as 100%. The half-maximal inhibitory concentration (IC50) was estimated by plot of relative enzymatic activity vs. inhibitor concentration.

α-glucosidase [2] = target: T1, α-glucosidase; experiment: Kinetic analysis of yeast α-glucosidase inhibition (Michaelis–Menten and Lineweaver–Burk plots); format: biochemical; conditions: for Inhibitor Potency (relative to acarbose): from Ki values; for Vmax of α-glucosidase: converted using the Lambert–Beer relationship
Description: The type of enzyme inhibition exerted by inhibitors was evaluated from kinetic studies using different substrate concentrations (0.25–2.5 mM pNPG) applying Michaelis–Menten and Lineweaver–Burk plots. Inhibition constants (Ki) were determined by plots of the Y-intercept of the Lineweaver–Burk plot vs. inhibitor concentration.

α-glucosidase [3] = target: T1, α-glucosidase; experiment: Inactivation kinetics, time course of α-glucosidase activity; format: biochemical; conditions: enzyme 0.075 µM, pNPG 2 mM
Description: The enzyme and substrate concentrations were 0.075 µM and 2 mM, respectively.

α-glucosidase [4] = target: T1, α-glucosidase; experiment: Fluorescence quenching analysis and thermodynamic parameters; format: binding; conditions: for Ksv (Stern–Volmer quenching constant): pH 6.8, α-glucosidase 0.35 µM; for Kd: read-out: Ka (binding constant) (converted)
Description: The interaction of inhibitors with α-glucosidase was studied using the fluorescence quenching method. […] Measurements were made in the emission range of 300–450 nm, with an excitation of 280 nm, after 10 min of stabilization. The fluorescent spectra of α-glucosidase (0.35 µM) and each inhibitor (0–1.0 µM) were carried out at three different temperatures (298, 304, and 310 K) and the bandwidths were set at 5 nm for both emission and excitation slits. For each sample, three fluorescence spectra were acquired, and the blank was subtracted. The compound quenching mechanism was assessed using the Stern–Volmer equation: F0 / F = 1 + Ksv[Q] = 1 + Kq^.τo[Q], where F0 and F are the fluorescence measure in absence and in presence of different concentrations of quencher, respectively; Ksv is the Stern–Volmer quenching constant; Kq is the coefficient of quencher rate coefficient; τ0 is the life time of the excited state; and [Q] is the concentration of the quencher.
Further elaboration of the equilibrium within the free and bound molecules can be achieved through the analysis of the fluorescence emission data utilizing the following equation: log (F0 − F) / F = log Ka + n log [Q], which obtains the binding constant (Ka) and the number of binding sites per protein (n) for the enzyme-inhibitor system.
Thermodynamic spontaneity is an important factor in the study of protein-ligand interaction. A system tends not only toward a lower energy state (enthalpy, ΔH), but also according to a state of disorder (entropy, ΔS). Thermodynamic parameters were obtained according to the Van ’t Hoff equation and the plot of “log Ka vs. 1/T”. The trade-off between enthalpy (ΔH°) and entropy (ΔS°) is used to obtain the standard free energy variation (ΔG°).

α-glucosidase [5] = target: T1, α-glucosidase; experiment: Synchronous fluorescence spectra; conditions: pH 6.8, 298 K
Text: The application of this method allows the identification of conformational changes in proteins according to the spectroscopic behavior of the tyrosine and tryptophan residues. Synchronous fluorescence spectra were collected in the emission range of 260–320 nm. The difference between excitation and emission wavelength (Δλ) was established at 15 nm (tyrosine residues) or at 60 nm (tryptophan residues).

α-glucosidase [6] = target: T1, α-glucosidase; parameters: method as in PMID 24333230; conditions: ref 17; cited from earlier work
α-glucosidase [7] = conditions: cited from earlier work
[8] = 298–310 K, Van ’t Hoff equation

For `O=c1cc(-c2ccc(O)c(O)c2)oc2cc(O)cc(O)c12` [Luteolin, 3’,4’,5,7-tetrahydroxyflavone], the reversibility of inhibition (α-glucosidase [1]; plots v vs. [α-glucosidase] at different inhibitor concentrations) was “reversible inhibition”, the IC50 (α-glucosidase [1]; α-glucosidase 0.025 × 10^−6 M, read-out: IC50) was 14 ± 10.5 µM and the IC50 (α-glucosidase [1]; α-glucosidase 0.05 × 10^−6 M, read-out: IC50) was 21.6 ± 11.7 µM. It also gave an IC50 (α-glucosidase [1]; α-glucosidase 0.05 × 10^−6 M, read-out: −Log IC50 (converted)) of 21.9 µM, an IC50 (α-glucosidase [1]; α-glucosidase 0.075 × 10^−6 M, read-out: IC50) of 32.3 ± 11.7 µM and an IC50 (α-glucosidase [1]; α-glucosidase 0.125 × 10^−6 M, read-out: IC50) of 59.4 ± 12.3 µM. The “Ki’ (binding constant of the inhibitor to the substrate-enzyme complex)” value (α-glucosidase [2]; 0.075 µM α-glucosidase) was 35.4 µM, the Ki (α-glucosidase [2]; 0.075 µM α-glucosidase, secondary plots of slope versus [I], read-out: Ki (binding constant of the inhibitor to the free enzyme)) was 34.2 µM and the type of inhibition (α-glucosidase [2]; Michaelis–Menten and Lineweaver–Burk plots) was “non-competitive inhibition; also recorded: non-competitive reversible inhibitor”. The “Inhibitor Potency (relative to acarbose)” value (α-glucosidase [2]) was 10.4, the “Inhibitor Potency (relative to acarbose)” value (α-glucosidase [2]; listed as luteolin) was no less than 10 and the “Kcat of α-glucosidase” value (α-glucosidase [2]; inhibitor 5 µM, 0.075 µM α-glucosidase) was 2.95 ± 0.12 s⁻¹. The “Kcat of α-glucosidase” value (α-glucosidase [2]; inhibitor 10 µM, 0.075 µM α-glucosidase) was 2.65 ± 0.13 s⁻¹, the “Kcat of α-glucosidase” value (α-glucosidase [2]; inhibitor 25 µM, 0.075 µM α-glucosidase) was 2.02 ± 0.12 s⁻¹ and the “Vmax of α-glucosidase” value (α-glucosidase [2]; inhibitor 25 µM) was 9.10 ± 0.50 µM/min. For the same molecule, the “Kcat of α-glucosidase” value (α-glucosidase [2]; inhibitor 40 µM, 0.075 µM α-glucosidase) was 1.78 ± 0.12 s⁻¹, the “Vmax of α-glucosidase” value (α-glucosidase [2]; inhibitor 40 µM) was 8.00 ± 0.50 µM/min and the “Kcat of α-glucosidase” value (α-glucosidase [2]; inhibitor 50 µM, 0.075 µM α-glucosidase) was 1.41 ± 0.11 s⁻¹. For the same molecule, the “Vmax of α-glucosidase” value (α-glucosidase [2]; inhibitor 50 µM) was 6.34 ± 0.60 µM/min, the “Inactivation rate constant K” value (α-glucosidase [3]; inhibitor 5 µM) was 2.67 ± 0.08 10^−4 s^−1 and the “Inactivation rate constant K” value (α-glucosidase [3]; inhibitor 10 µM) was 2.78 ± 0.08 10^−4 s^−1. The “Inactivation rate constant K” value (α-glucosidase [3]; inhibitor 25 µM) was 2.81 ± 0.03 10^−4 s^−1, the “Inactivation rate constant K” value (α-glucosidase [3]; inhibitor 40 µM) was 2.82 ± 0.04 10^−4 s^−1 and the “Inactivation rate constant K” value (α-glucosidase [3]; inhibitor 50 µM) was 2.84 ± 0.01 10^−4 s^−1. For the same molecule, the “Kq (bimolecular quenching constant)” value (α-glucosidase [4]; 298 K) was 23.22 ± 0.159 10^13 M^−1 s^−1, the “n (number of binding sites)” value (α-glucosidase [4]; 298 K) was 1.10 and the “ΔG° (free energy change)” value (α-glucosidase [4]; 298 K, Van ’t Hoff equation) was -0.547 kcal/mol. The “Ksv (Stern–Volmer quenching constant)” value (α-glucosidase [4]; 298 K) was 23.22 ± 0.16 10^5 M^−1, the Kd (α-glucosidase [4]; 298 K) was 0.402 µM and the “ΔH° (enthalpy change)” value (α-glucosidase [4]; [8]) was -2.18 kcal/mol. For the same molecule, the “∆S° (entropy change)” value (α-glucosidase [4]; [8]) was −22.95 J mol^−1K^−1, the “Kq (bimolecular quenching constant)” value (α-glucosidase [4]; 304 K) was 21.73 ± 0.141 10^13 M^−1 s^−1 and the “n (number of binding sites)” value (α-glucosidase [4]; 304 K) was 1.28. The “ΔG° (free energy change)” value (α-glucosidase [4]; 304 K, Van ’t Hoff equation) was -0.514 kcal/mol, the “Ksv (Stern–Volmer quenching constant)” value (α-glucosidase [4]; 304 K) was 21.73 ± 0.14 10^5 M^−1 and the Kd (α-glucosidase [4]; 304 K) was 0.417 µM. The “Kq (bimolecular quenching constant)” value (α-glucosidase [4]; 310 K) was 18.68 ± 0.120 10^13 M^−1 s^−1, the “n (number of binding sites)” value (α-glucosidase [4]; 310 K) was 1.34 and the “ΔG° (free energy change)” value (α-glucosidase [4]; 310 K, Van ’t Hoff equation) was -0.48 kcal/mol. For the same molecule, the “Ksv (Stern–Volmer quenching constant)” value (α-glucosidase [4]; 310 K) was 18.68 ± 0.12 10^5 M^−1, the Kd (α-glucosidase [4]; 310 K) was 0.464 µM and the fluorescence quenching mechanism (α-glucosidase [4]; based on Ksv and Kq values) was “static quenching mechanism”. The “number of binding sites” value (α-glucosidase [4]; no temperature stated) was “approximately 1”, the “shift of synchronous fluorescence maximum” value (α-glucosidase [5]; ∆λ = 15 nm (tyrosine residues)) was “blue shift from 286 to 283” and the “shift of synchronous fluorescence maximum” value (α-glucosidase [5]; ∆λ = 60 nm (tryptophan residues)) was “no modification”. The “distance between inhibitor and α-glucosidase” value (α-glucosidase [6]) was 4.56 nm, the “times more potent than acarbose” value (α-glucosidase [7]; first of 'respectively', from literature IC50 values ref 18) was 13 times and the Ki (α-glucosidase [7]; ref 4) was 29 µM and 38 µM. The IC50 (α-glucosidase [7]; ref 6) was 46 µM, the Ki (α-glucosidase [7]; ref 17) was 140 µM and the IC50 (α-glucosidase [7]; ref 18) was 13.1 µM. The “times more potent than acarbose” value (α-glucosidase [7]; second of 'respectively', from literature IC50 values ref 6) was 17 times.
